Molecules are shown by their SMILES. ≈ marks a conversion by molar mass, not a printed value. Read-outs that look alike come from different tables or passages of the source.

The nature of series [1]: Solubility in 1,1,1,3,3,3-hexafluoro-2-propanol (HFIP). Conditions: for solubility: 1,1,1,3,3,3-hexafluoro-2-propanol (HFIP), organic solvent or mixture, thermodynamic from solid. The method, then:
The solubility in hexafluoroisopropanol is determined as described below according to the present invention. A mixture is prepared by adding a compound to 1,1,1-3,3,3-hexafluoro-2-propanol while changing the concentration of the compound in a stepwise manner, and the concentration at which precipitation takes place is examined. Thus, the solubility of the compound in 1,1,1-3,3,3-hexafluoro-2-propanol is determined. In addition, a soluble/insoluble state is determined by confirming the presence of a deposit after centrifugation of the above mixture with a micro centrifuge (Chibitan II XX42CF00T produced by Tech-Jam) for 20 seconds.

The nature of series [2]: Stereo-microscopic observation of drug-containing hydrophilic matrix films and gels (finely-dispersed state / precipitation). Conditions: gelatin film cast from HFIP, stereo microscope; for State of drug in gelatin film, Drug/gelatin mass proportion 0.1%: drug/gelatin 0.1%; for State of drug in gelatin film, Drug/gelatin mass proportion 1.0%: drug/gelatin 1.0%; for State of drug in gelatin film, Drug/gelatin mass proportion 5.0%: drug/gelatin 5.0%. It is filed as physicochemical. Details: key: ∘: contained in a finely-dispersed state; Δ: partially precipitated. The method, then: The term “in a finely-dispersed state” used herein refers to a condition in which the contained poorly water-soluble drug, which is a compound of a size that cannot be detected with a stereo microscope (MZ16A produced by Leica), is uniformly dispersed in a matrix, or a condition in which such a drug is in a molecular dispersion state in a matrix.
Paclitaxel (produced by LCL laboratories) was used as a poorly water-soluble compound. […] 1,1,1,3,3,3-hexafluoro-2-propanol solution (HFIP; 200 μL) containing paclitaxel (1 mg/mL) and gelatin (100 mg/mL; PSK gelatin produced by Nippi Inc.) was coated on a polypropylene dish (2 cm×2 cm×500 μm), followed by drying at an ordinary temperature for 15 hours. Thus, a paclitaxel-containing gelatin film was produced.
Upon observation with a stereo microscope (produced by Leica, MZ16A), precipitation of paclitaxel was not observed. […] In addition, the gel produced with HFIP and subjected to crosslinking with transglutaminase and water swelling was transparent.
Observation was carried out in the same manner as in Example 2.
Drug-containing gelatin films were produced in the same manner as in Example 1 except that paclitaxel used in Example 1 was replaced by drugs with concentrations listed in Table 1 below. Observation was carried out in the same manner as in Example 2. […]

[3] abbreviates: upper dissolution limit - lower precipitation limit, samples at 30, 50, 100, 200, 500 mg/ml.

As for `CC(=O)Oc1ccccc1C(=O)O` [Aspirin], the solubility in series [1] was in the range of 200 to 500 mg/mL (≈ 1110 to 2780 mM). In series [2], the “State of drug in gelatin film, Drug/gelatin mass proportion 0.1%” value (from here on “State … Drug/gelatin mass proportion 0.1%”) is recorded as “∘”; the “State of drug in gelatin film, Drug/gelatin mass proportion 1.0%” value (“State … Drug/gelatin mass proportion 1.0%” below) is on record as “∘”; the “State of drug in gelatin film, Drug/gelatin mass proportion 5.0%” value (shortened to “State … Drug/gelatin mass proportion 5.0%”) was “∘”.
With `CC12CCC(C(=O)C1=O)C2(C)C` (centres unmarked) [Camphorquinone], the solubility in series [1] is 200 to 500 mg/mL (≈ 1200 to 3010 mM). For the same molecule, in series [2], the “State … Drug/gelatin mass proportion 0.1%” value is reported as “∘”; the “State … Drug/gelatin mass proportion 1.0%” value is reported as “∘”; the “State … Drug/gelatin mass proportion 5.0%” value was “∘”.
On to `CCN(CC)c1ccc2c(C)cc(=O)oc2c1` [Coumarin 1], for which the “Solubility in HFIP” value in series [1] (setting [3]) fell in the range of 200 to 500 mg/mL. In series [2], the “State … Drug/gelatin mass proportion 0.1%” value is on record as “∘”; the “State … Drug/gelatin mass proportion 1.0%” value was “∘”; the “State … Drug/gelatin mass proportion 5.0%” value is given as “∘”.
For `CCN(CC)c1ccc2cc(-c3nc4ccccc4s3)c(=O)oc2c1` [Coumarin 6], the “Solubility in HFIP” value in series [1] lay in the range of 30 to 50 mg/mL. For the same molecule, in series [2], the “State … Drug/gelatin mass proportion 0.1%” value is “∘”; the “State … Drug/gelatin mass proportion 1.0%” value is “Precipitated”; the “State … Drug/gelatin mass proportion 5.0%” value is “Precipitated”.
Consider `CC(=O)O[C@@]12CO[C@@H]1C[C@H](O)[C@@]1(C)C(=O)[C@H](O)C3=C(C)[C@@H](OC(=O)[C@H](O)[C@@H](NC(=O)OC(C)(C)C)c4ccccc4)C[C@@](O)([C@@H](OC(=O)c4ccccc4)[C@H]21)C3(C)C` [Docetaxel], for which the solubility in series [1] is 100 to 200 mg/mL (≈ 124 to 248 mM). Further, in series [2], the “State … Drug/gelatin mass proportion 0.1%” value is recorded as “∘”; the “State … Drug/gelatin mass proportion 1.0%” value is reported as “∘”; the “State … Drug/gelatin mass proportion 5.0%” value is “∘”.
For `CN(C)c1ccc(N=Nc2ccccc2)cc1` [Methyl yellow], the “Solubility in HFIP” value in series [1] (setting [3]) was 50 to 100 mg/mL. Further, in series [2], the “State … Drug/gelatin mass proportion 0.1%” value is on record as “∘”; the “State … Drug/gelatin mass proportion 1.0%” value was “∘”; the “State … Drug/gelatin mass proportion 5.0%” value is reported as “Precipitated”.
Take `CC(=O)O[C@H]1C(=O)[C@@]2(C)[C@H]([C@H](OC(=O)c3ccccc3)[C@]3(O)C[C@H](OC(=O)[C@H](O)[C@@H](NC(=O)c4ccccc4)c4ccccc4)C(C)=C1C3(C)C)[C@]1(OC(C)=O)CO[C@@H]1C[C@@H]2O` [Paclitaxel]: in series [1], the solubility is 200 to 500 mg/mL (≈ 234 to 586 mM). For the same molecule, the “Solubility in HFIP” value in series [1] (setting [3]) lay in the range of 200 to 500 mg/mL. In series [2], the “State … Drug/gelatin mass proportion 0.1%” value is “∘”; the “State … Drug/gelatin mass proportion 1.0%” value was “∘”; the “State … Drug/gelatin mass proportion 5.0%” value is recorded as “∘”.
Take `O=C1NC(=O)C(c2ccccc2)(c2ccccc2)N1` [Phenytoin]: the solubility in series [1] lay in the range of 50 to 100 mg/mL (≈ 198 to 396 mM). Further, in series [2], the “State … Drug/gelatin mass proportion 0.1%” value was “∘”; the “State … Drug/gelatin mass proportion 1.0%” value is “∘”; the “State … Drug/gelatin mass proportion 5.0%” value was “Precipitated”.
As to `CO[C@H]1C[C@@H]2CC[C@@H](C)[C@@](O)(O2)C(=O)C(=O)N2CCCC[C@H]2C(=O)O[C@H]([C@H](C)C[C@@H]2CC[C@@H](O)[C@H](OC)C2)CC(=O)[C@H](C)/C=C(\C)[C@@H](O)[C@@H](OC)C(=O)[C@H](C)C[C@H](C)/C=C/C=C/C=C/1C` [Rapamycin], the solubility in series [1] lay in the range of 200 to 500 mg/mL (≈ 219 to 547 mM).
Regarding `C=C1CC[C@H](O)C/C1=C/C=C1\CCC[C@]2(C)[C@@H]([C@H](C)CCCC(C)C)CC[C@@H]12` [Vitamin D3], in series [1] (setting [3]), the “Solubility in HFIP” value fell in the range of 200 to 500 mg/mL. In series [2], the “State … Drug/gelatin mass proportion 0.1%” value is “∘”; the “State … Drug/gelatin mass proportion 1.0%” value was “∘”; the “State … Drug/gelatin mass proportion 5.0%” value is recorded as “∘”.
